# Source: US9469615B2, “Quinoxalines and AZA-quinoxalines as CRTH2 receptor modulators” (Merck Sharp & Dohme Corp., priority 2010, dated 2016)
# Molecular target: T1, hCRTH2 (Homo sapiens, UniProt Q9Y5Y4)
# T1 construct: expressed in transfected cells; host or cells: HEK (human embryonic kidney) cells expressing hCRTH2; membrane preparation
# T1 sequence (Q9Y5Y4 1-395): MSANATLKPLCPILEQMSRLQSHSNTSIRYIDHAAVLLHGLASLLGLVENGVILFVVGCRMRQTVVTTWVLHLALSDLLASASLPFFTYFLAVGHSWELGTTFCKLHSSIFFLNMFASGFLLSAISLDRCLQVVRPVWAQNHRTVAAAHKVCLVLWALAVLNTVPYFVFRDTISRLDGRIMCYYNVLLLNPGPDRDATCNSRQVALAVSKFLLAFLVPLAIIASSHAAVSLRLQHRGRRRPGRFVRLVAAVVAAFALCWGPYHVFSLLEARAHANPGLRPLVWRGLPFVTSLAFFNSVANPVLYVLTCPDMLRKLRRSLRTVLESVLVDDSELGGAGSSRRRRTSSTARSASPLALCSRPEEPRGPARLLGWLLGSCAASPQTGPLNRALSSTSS
# Assay: Radioligand binding assay ([3H]PGD2 competition, HEK-hCRTH2 membranes)
# Conditions: [3H]PGD2 binding, values in text
# How it was run: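 Using membranes of an HEK line stably carrying hCRTH2, ligands were tested against [3H]PGD2 (3.0 nM) in pH 7.4 Tris buffer containing 2 mM MnCl2 and 1 mM EDTA. After one hour at room temperature, filters were washed cold and counted.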
row,SMILES,Ki [nM]
1,C[C@@H](CCc1nc2cc(C(=O)N(C)Cc3ccc(F)cc3)ccc2nc1-c1ccccc1)CC(=O)O [compound 292],39.2

# Same assay, conditions: [3H]PGD2 competition, Table B
row,SMILES,Ki [nM]
1,"Cc1ccc([C@@]23C[C@@H]2CN(C(=O)c2ccc4nc(-c5ccc(Cl)cc5)c(CCCCC(=O)O)nc4c2)C3)cc1 [compound 285, 5-(3-(4-chlorophenyl)-7-((1R,5S)-1-(p-tolyl)-3 - azabicyclo[3.1.0]hexane-3-carbonyl)quinoxalin-2-yl)pentanoic acid]",2.1 to 20
2,"C[C@@H](CCc1nc2cc(C(=O)N[C@H]3CCCc4ccccc43)ccc2nc1-c1ccccc1)CC(=O)O [compound 286, (S)-3-methyl-5-(3-phenyl-7-(((S)-1,2,3,4-tetrahydronaphthalen-1-yl)carbamoyl)quinoxalin-2-yl)pentanoic acid]",20.1 to 200
3,"C[C@@H](CCc1nc2cc(C(=O)N[C@H](C)c3ccc(F)cc3)ccc2nc1-c1ccccc1)CC(=O)O [compound 287, (S)-5-(7-(((R)-1-(4-fluorophenyl)ethyl)carbamoyl)-3-phenylquinoxalin-2-yl)-3-methylpentanoic acid]",20.1 to 200
4,"C[C@@H](CCc1nc2cc(C(=O)N[C@@H](C)c3ccc(F)cc3)ccc2nc1-c1ccccc1)CC(=O)O [compound 288, (S)-5-(7-(((S)-1-(4-fluorophenyl)ethyl)carbamoyl)-3-3-phenylquinoxalin-2-yl)-3-methylpentanoic acid]",20.1 to 200
5,"C[C@@H](CCc1nc2cc(C(=O)N3CCN(c4ccccc4)CC3)ccc2nc1-c1ccccc1)CC(=O)O [compound 289, (S)-3-methyl-5-(3-phenyl-7-(4-phenylpiperazine-1-carbonyl)quinoxalin-2-yl)pentanoic acid]",20.1 to 200
6,"C[C@@H](CCc1nc2cc(C(=O)N3CC(c4cccc(F)c4)C3)ccc2nc1-c1ccccc1)CC(=O)O [compound 290, (S)-5-(7-(3-(3-fluorophenyl)azetidine-1-carbonyl)-3-phenylquinoxalin-2-yl)-3-methylpentanoic acid]",2.1 to 20
7,"C[C@@H](CCc1nc2cc(C(=O)N3CC[C@@H](c4ccccc4)C3)ccc2nc1-c1ccccc1)CC(=O)O [compound 291, (S)-3-methyl-5-(3-phenyl-7-((S)-3-phenylpyrrolidine-1-carbonyl)quinoxalin-2-yl)pentanoic acid]",2.1 to 20
8,C[C@@H](CCc1nc2cc(C(=O)N(C)Cc3ccc(F)cc3)ccc2nc1-c1ccccc1)CC(=O)O [compound 292],20.1 to 200
9,"C[C@@H](CCc1nc2cc(C(=O)N[C@@H]3CCCc4ccccc43)ccc2nc1-c1ccccc1)CC(=O)O [compound 293, (S)-3-methyl-S-(3-phenyl-7-(((R)-1,2,3,4-tetrahydronaphthalen-1-yl)carbamoyl)quinoxalin-2-yl)pentanoic acid]",2.1 to 20
10,"O=C(O)CCCCc1nc2cc(C(=O)NC3CCCOc4ccccc43)ccc2nc1-c1ccccc1 (stereo not drawn) [compound 294, 5-(3-phenyl-7-((2,3,4,5-tetrahydrobenzo[b]oxepin-5-yl)carbamoyl)quinoxalin-2-yl)pentanoic acid]",2.1 to 20
11,"CC1(C)CC(NC(=O)c2ccc3nc(-c4ccccc4)c(CCCCC(=O)O)nc3c2)c2ccccc2O1 (stereo not drawn) [compound 295, 5-(7((2,2-dimethylchroman-4-yl)carbamoyl)-3-phenylquinoxalin-2-yl)pentanoic acid]",2.1 to 20
12,"CC1(C)CCC(NC(=O)c2ccc3nc(-c4ccccc4)c(CCCCC(=O)O)nc3c2)c2ccccc21 (stereo not drawn) [compound 296, 5-(7-((4,4-dimethyl-1,2,3,4-tetrahydronaphthalen-1-yl)carbamoyl)-3-phenylquinoxalin-2-yl)pentanoic acid]",2.1 to 20
13,"O=C(O)CCCCc1nc2cc(C(=O)N3CCC4(CCCc5ccccc54)C3)ccc2nc1-c1ccccc1 (stereo not drawn) [compound 297, 5-(7-(3,4-dihydro-2H-spiro[naphthalene-1,3′-pyrrolidin]-1′-ylcarbonyl)-3-phenylquinoxalin-2-yl)pentanoic acid]",2.1 to 20
14,"O=C(O)CCCCc1nc2cc(C(=O)N3CCC4(CC3)CNC(=O)c3ccccc34)ccc2nc1-c1ccccc1 [compound 298, 5-(7-(i-oxo-2,3-dihydro-1H-spiro[isoquinoline-4,4′-piperidin]-1′-ylcarbonyl)-3-phenylquinoxalin-2-yl)pentanoic acid]",2.1 to 20
15,"O=C(O)CCCCc1nc2cc(C(=O)N3CCC4(CC3)NC(=O)Cc3ccccc34)ccc2nc1-c1ccccc1 [compound 299, 5-(7-(3-oxo-3,4-dihydro-2H-spiro[isoquinoline-1,4′-piperidin]-1′-ylcarbonyl)-3-phenylquinoxalin-2-yl)pentanoic acid]",2.1 to 20
16,"O=C(O)CCCCc1nc2cc(C(=O)N3CCC4(CC3)Cc3ccccc3C(=O)N4)ccc2nc1-c1ccccc1 [compound 300, 5-(7-(1-oxo-2,4-dihydro-1H-spiro[isoquinoline-3,4′-piperidin]-1′-ylcarbonyl)-3-phenylquinoxalin-2-yl)pentanoic acid]",2.1 to 20

row,SMILES,Ki [nM]
1,"O=C(O)CCCCc1nc2cc(C(=O)N[C@@H]3CCSc4ccccc43)ccc2nc1-c1ccccc1 [compound 301, (R)-5-(3-phenyl-7-(thiochroman-4-ylcarbamoyl)quinoxalin-2-yl)pentanoic acid]",2.1 to 20
2,"O=C(O)CCCCc1nc2cc(C(=O)N3CCN(Cc4ccccc4)CC3)ccc2nc1-c1ccccc1 [compound 302, 5-(7-(4-benzylpiperazine-1-carbonyl)-3-phenylquinoxalin-2-yl)pentanoic acid]",2.1 to 20
3,"N#Cc1cccnc1N1CCN(C(=O)c2ccc3nc(-c4ccccc4)c(CCCCC(=O)O)nc3c2)CC1 [compound 303, 5-(7-(4-(3-cyanopyridin-2-yl)piperazine-1-carbonyl)-3-phenylquinoxalin-2-yl)pentanoic acid]",2.1 to 20
4,"O=C(O)CCCCc1nc2cc(C(=O)N3CCN(c4c(Cl)cncc4Cl)CC3)ccc2nc1-c1ccccc1 [compound 304, 5-(7-(4-(3,5-dichloropyridin-4-yl)piperazine-1-carbonyl)-3-phenylquinoxalin-2-yl)pentanoic acid]",2.1 to 20
5,"O=C(O)CCCCc1nc2cc(C(=O)N3CCN(c4ccccc4C(F)(F)F)CC3)ccc2nc1-c1ccccc1 [compound 305, 5-(3-phenyl-7-(4-(2-(trifluoromethyl)phenyl)piperazine-1-carbonyl)quinoxalin-2-yl)pentanoic acid]",2.1 to 20
6,"O=C(O)CCCCc1nc2cc(C(=O)N3CCN(c4nccs4)CC3)ccc2nc1-c1ccccc1 [compound 306, 5-(3-phenyl-7-(4-(thiazol-2-yl)piperazine-1-carbonyl)quinoxalin-2-yl)pentanoic acid]",20.1 to 200
7,"O=C(O)CCCCc1nc2cc(C(=O)N3Cc4ccccc4C3)ccc2nc1-c1ccccc1 [compound 307, 5-(7-(isoindoline-2-carbonyl)-3-phenylquinoxalin-2-yl)pentanoic acid]",20.1 to 200
8,"O=C(O)CCCCc1nc2cc(C(=O)N3CCN(c4ccccc4Cl)CC3)ccc2nc1-c1ccccc1 [compound 308, 5-(7-(4-(2-chlorophenyl)piperazine-1-carbonyl)-3-phenylquinoxalin-2-yl)pentanoic acid]",2.1 to 20
9,"O=C(O)CCCCc1nc2cc(C(=O)N3CCN(c4cccc(C(F)(F)F)c4)CC3)ccc2nc1-c1ccccc1 [compound 309, 5-(3-phenyl-7-(4-(3-(trifluoromethyl)phenyl)piperazine-l-carbonyl)quinoxalin-2-yl)pentanoic acid]",2.1 to 20
10,"O=C(O)CCCCc1nc2cc(C(=O)N[C@H]3CCOc4cc(F)ccc43)ccc2nc1-c1ccccc1 [compound 310, (S)-5-(7((7-fluorochroman-4-yl)carbamoyl)-3-phenylquinoxalin-2-yl)pentanoic acid]",2.1 to 20
11,"O=C(O)CCCCc1nc2cc(C(=O)NC3CCCc4cc(OCc5ccccc5)ccc43)ccc2nc1-c1ccc(Cl)cc1 (stereo not drawn) [compound 311, 5-(7-((6-(benzyloxy)-1,2,3,4-tetrahydronaphthalen-1-yl)carbamoyl)-3-(4-chlorophenyl)quinoxalin-2-yl)pentanoic acid]",2.1 to 20
12,"COc1ccc2c(c1)CCCC2NC(=O)c1ccc2nc(-c3ccc(Cl)cc3)c(CCCCC(=O)O)nc2c1 (stereo not drawn) [compound 312, 5-(3-(4-chlorophenyl)-7((6-methoxy-1,2,3,4-tetrahydronaphthalen-1-yl)carbamoyl)quinoxalin-2-yl)pentanoic acid]",2.1 to 20
13,"O=C(O)CCCCc1nc2cc(C(=O)N[C@H]3COc4cc(F)ccc43)ccc2nc1-c1ccc(Cl)cc1 [compound 313, (R)-5-(3-(4-chlorophenyl)-7-((6-fluoro-2,3-dihydrobenzofuran-3-yl)carbamoyl)quinoxalin-2-yl)pentanoic acid]",2.1 to 20
14,"O=C(O)CCCCc1nc2cc(C(=O)N[C@@H]3COc4cc(F)ccc43)ccc2nc1-c1ccc(Cl)cc1 [compound 314, (S)-5-(3-(4-chlorophenyl)-7-((6-fluoro-2,3-dihydrobenzofuran-3-yl)carbamoyl)quinoxalin-2-yl)pentanoic acid]",2.1 to 20
15,"CN1C(=O)CC(NC(=O)c2ccc3nc(-c4ccc(Cl)cc4)c(CCCCC(=O)O)nc3c2)c2ccccc21 (stereo not drawn) [compound 315, 5-(3-(4-chlorophenyl)-7-((1-methyl-2-oxo-1,2,3,4-tetrahydroquinolin-4-yl)carbamoyl)quinoxalin-2-yl)pentanoic acid]",2.1 to 20
16,"O=C(O)CCCCc1nc2cc(C(=O)N3CCC(N4Cc5ccccc5C4=O)CC3)ccc2nc1-c1ccc(Cl)cc1 [compound 316, 5-(3-(4-chlorophenyl)-7-(4-(1-oxoisoindolin-2-yl)piperidine-1-carbonyl)quinoxalin-2-yl)pentanoic acid]",2.1 to 20
